ChEMBL document CHEMBL3734654, “Mutational mapping of the transmembrane binding site of the G-protein coupled receptor TGR5 and binding mode prediction of TGR5 agonists” (Eur J Med Chem, 2015)
Calls of active or inactive are those of the source. No cut-off for these calls is given here.

System: T1, G-protein coupled bile acid receptor 1 (Homo sapiens), Q8TDU6 [E169A]
T1 sequence (whole entry): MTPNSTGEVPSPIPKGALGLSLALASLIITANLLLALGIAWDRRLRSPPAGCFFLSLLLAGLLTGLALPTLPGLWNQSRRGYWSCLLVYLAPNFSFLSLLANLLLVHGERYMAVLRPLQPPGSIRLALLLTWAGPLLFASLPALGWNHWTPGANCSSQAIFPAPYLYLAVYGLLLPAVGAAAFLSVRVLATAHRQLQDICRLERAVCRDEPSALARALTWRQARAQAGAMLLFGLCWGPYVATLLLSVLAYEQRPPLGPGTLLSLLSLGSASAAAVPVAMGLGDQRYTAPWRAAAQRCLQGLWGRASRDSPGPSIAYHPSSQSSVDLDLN
Experiment: Agonist activity at human TGR5 E169A mutant expressed in HEK293 cells assessed as rise in intracellular cAMP level at 10 uM incubated for 16 hrs by luciferase reporter assay relative to wild type
Assay type: functional, cell-based

- Activity: Active
SMILES: C=C[C@@]1(C)CC(=O)[C@]2(O)[C@@]3(C)[C@@H](O)CCC(C)(C)[C@@H]3[C@H](O)[C@H](OC(C)=O)[C@@]2(C)O1
